Experimental data reported in US7772255B2, “Method of treating tumors with azaxanthones” (Supratek Pharma, Inc., priority 2005, dated 2010).
Counter-ions that a name gives are not always drawn. Like-named read-outs stand apart in the source and are kept apart here.

Columns and labels:
[1] = Pharmacokinetics in normal dogs; format: in vivo, dog (Canis familiaris); settings: dog plasma, oral, 10 mg/kg, listed as Amlexanox Na Salt, sodium salt
Experimental: Experiments were performed in 6 male Beagle dogs (Canis familiaris) (from 8 to 14 kg body weight, 2 to 3 years of age). The animals had ad libitum access to tap water. Commercial dog chow was provided to the animals once daily during a 2-hour feeding period.
Dosing solution of amlexanox salt was prepared by simple dissolving of amlexanox salt in water. Dosing solution of amlexanox acid was prepared suspending of amlexanox acid in 0.5% methyl cellulose.
Amlexanox acid and Na salt forms were orally administered by gavage in dogs (three animals in each group) at doses of 10 mg/kg. Amlexanox tablets L and CP, prepared according to Example 13, were administered to dogs orally at doses of 10 mg/kg. After various time intervals (pre-dose, 15, 30 min and 1, 2, 3, 6, 8, 12, 24 and 48 h) post-injection, blood was collected from the jugular vein of animals. Then, blood was immediately centrifuged, and plasma was separated. The plasma samples were immediately frozen in dry ice and stored at −80° C. until further use.
(§1) The defrosted plasma samples were centrifuged at 2000 g for 5 min, and aliquots (10 μL) of each sample were transferred into 1.5-ml plastic tubes. The samples were diluted with PBS in various amounts of times and aliquots of 100 μL were transferred into the other 1.5-ml plastic tubes. The samples were extracted with 1 mL of 100% acetonitrile for 10 min on 180° rotator. Then, the tubes were centrifuged at 10,000 g for 15 min.
(§2) The supernatant was separated to glass tubes and evaporated in a stream of nitrogen at […]. until dryness. The dried samples were kept at −20° C. until HPLC analysis. The samples were reconstituted in 100 μL of mobile phase analyze before analyze by HPLC.
(§3) The samples were analysed by HPLC using 250×4.6 mm, Phenomenex C18 Luna, 5 micron column, 1 mL/min flow rate of mobile phase 73% of 25 mM sodium phosphate pH 7.5 and 27% acetonitrile; fluorescent deyection λexcitation=348 nm, λemission=404 nm.
The concentrations of amlexanox in samples were determined by comparison with calibration curve obtained from spiked dog plasma samples using the same analytical method. The areas under the curves (AUC) of amlexanox were calculated by trapezoidal method.

[2] = Bioavailability and pharmacokinetics in normal rats; format: in vivo, rat; settings: for clearance / Vd / AUC / Cmax / MRT / half-life / bioavailability: female, CD; for clearance / Vd / AUC / Cmax / MRT / half-life / CL / Vss: rat plasma; for Vd: read-out: Vss; for AUC / Cmax / MRT / half-life / bioavailability: rat, plasma; for bioavailability: salt, read-out: Bioavailability for oral administration; for CL / Vss: oral
Experimental: Female CD rats (from 200 to 250 g body weight) were obtained from Charles River Canada Inc. (St. Constant, Quebec, Canada). The animals were kept 4 per cage with an air filter cover under light (12 h light/dark cycle, light on at 06 h 00) and temperature (22°±1° C.)-controlled environment. All manipulations with the animals were performed under a sterilized laminar hood. The animals had ad libitum access to Purina rat chow (Pro Lab PMH 4018, Trademark of Agway, Syracuse, N.Y.) and water. The animal studies were conducted according to the “Guidelines for Care and Use of Experimental Animals”.
For Amlexanox salt the dosing solution was prepared by dissolving 20 mg of Amlexanox in equi-molar NaOH solution and then, equilibrated with 1M Tris-HCl pH 7.4. For Amlexanox acid the dosing solution was prepared by simple suspending 20 mg of Amlexanox in 1% methyl cellulose in water.
Amlexanox dosing solution (20 mg/mL) was administered i.v. and orally in normal rats (four animals in each group) at doses of 10, 25, 50, 100 and 200 mg/kg. After various time intervals (30 min and 1, 3, 6, 10 and 24 h) post-injection, blood was collected from eye vein of animals. Then, blood was immediately centrifuged, and plasma was separated. The plasma samples were immediately frozen in dry ice and stored at −80° C. until further use.
as §1, with “phosphate buttered saline (PBS)” for “PBS”
as §2, §3
The concentrations of Amlexanox in samples were determined by comparison with calibration curve obtained from spiked rat plasma samples using the same analytical method. The areas under the curves (AUC) of Amlexanox were calculated by trapezoidal method.

Q: Which results are given for `CC(C)c1ccc2oc3nc(N)c(C(=O)O)cc3c(=O)c2c1` [Amlexanox (salt), 2-amino-7-isopropyl-1-azaxanthone-3-carboxylic acid sodium salt]?
A: AUC [1]: 29000 ng·h/mL; CL [1]: 5 mL/min/kg; Cmax [1]: 10700 ng/mL; MRT [1]: 2.5 h; Vss [1]: 0.9 L/kg; t1/2 [1]: 1.8 h; clearance ([2]; iv, I.V., 10 mg/kg): 50 mL/min/kg; Vd ([2]; iv, I.V., 10 mg/kg): 2.26 L/kg; clearance ([2]; iv, I.V., 25 mg/kg): 8.83 mL/min/kg; Vd ([2]; iv, I.V., 25 mg/kg): 0.99 L/kg; clearance ([2]; iv, I.V., 50 mg/kg): 1.67 mL/min/kg; Vd ([2]; iv, I.V., 50 mg/kg): 0.1 L/kg; clearance ([2]; iv, I.V., 100 mg/kg): 2.17 mL/min/kg; Vd ([2]; iv, I.V., 100 mg/kg): 0.14 L/kg; clearance ([2]; iv, I.V., 200 mg/kg): 4.5 mL/min/kg; Vd ([2]; iv, I.V., 200 mg/kg): 0.51 L/kg; AUC ([2]; iv, 10 mg/kg, I.V.): 3300 ng·h/mL; Cmax ([2]; iv, 10 mg/kg, I.V.): 4500 ng/mL; MRT ([2]; iv, 10 mg/kg, I.V.): 0.75 h; half-life ([2]; iv, 10 mg/kg, I.V.): 0.52 h; AUC ([2]; iv, 25 mg/kg, I.V.): 47000 ng·h/mL; Cmax ([2]; iv, 25 mg/kg, I.V.): 33400 ng/mL; MRT ([2]; iv, 25 mg/kg, I.V.): 1.87 h; half-life ([2]; iv, 25 mg/kg, I.V.): 1.29 h; AUC ([2]; iv, 50 mg/kg, I.V.): 217000 ng·h/mL; Cmax ([2]; iv, 50 mg/kg, I.V.): 165000 ng/mL; MRT ([2]; iv, 50 mg/kg, I.V.): 1.05 h; half-life ([2]; iv, 50 mg/kg, I.V.): 0.69 h; AUC ([2]; iv, 100 mg/kg, I.V.): 398000 ng·h/mL; Cmax ([2]; iv, 100 mg/kg, I.V.): 216000 ng/mL; MRT ([2]; iv, 100 mg/kg, I.V.): 1.14 h; half-life ([2]; iv, 100 mg/kg, I.V.): 0.75 h; AUC ([2]; iv, 200 mg/kg, I.V.): 739000 ng·h/mL; Cmax ([2]; iv, 200 mg/kg, I.V.): 466000 ng/mL; MRT ([2]; iv, 200 mg/kg, I.V.): 1.89 h; half-life ([2]; iv, 200 mg/kg, I.V.): 1.31 h; AUC ([2]; po, 10 mg/kg, salt solution): 1040 ng·h/mL; Cmax ([2]; po, 10 mg/kg, salt solution): 190 ng/mL; MRT ([2]; po, 10 mg/kg, salt solution): 8.29 h; half-life ([2]; po, 10 mg/kg, salt solution): 5.76 h; bioavailability ([2]; po, 10 mg/kg, 10 mg/kg): 31.2%; AUC ([2]; po, 25 mg/kg, salt solution): 2200 ng·h/mL; Cmax ([2]; po, 25 mg/kg, salt solution): 550 ng/mL; MRT ([2]; po, 25 mg/kg, salt solution): 7.71 h; half-life ([2]; po, 25 mg/kg, salt solution): 5.33 h; bioavailability ([2]; po, 25 mg/kg, 25 mg/kg): 4.7%; AUC ([2]; po, 50 mg/kg, salt solution): 4470 ng·h/mL; Cmax ([2]; po, 50 mg/kg, salt solution): 1590 ng/mL; MRT ([2]; po, 50 mg/kg, salt solution): 7.28 h; half-life ([2]; po, 50 mg/kg, salt solution): 5.04 h; bioavailability ([2]; po, 50 mg/kg, 50 mg/kg): 2.1%; AUC ([2]; po, 100 mg/kg, salt solution): 41200 ng·h/mL; Cmax ([2]; po, 100 mg/kg, salt solution): 19800 ng/mL; MRT ([2]; po, 100 mg/kg, salt solution): 2.05 h; half-life ([2]; po, 100 mg/kg, salt solution): 1.42 h; bioavailability ([2]; po, 100 mg/kg, 100 mg/kg): 10.3%; AUC ([2]; po, 200 mg/kg, salt solution): 200000 ng·h/mL; Cmax ([2]; po, 200 mg/kg, salt solution): 95200 ng/mL; MRT ([2]; po, 200 mg/kg, salt solution): 1.77 h; half-life ([2]; po, 200 mg/kg, salt solution): 1.23 h; bioavailability ([2]; po, 200 mg/kg, 200 mg/kg): 27.1%; CL ([2]; salt solution, 10 mg/kg): 160 mL/min/kg; Vss ([2]; salt solution, 10 mg/kg): 79.8 L/kg; CL ([2]; salt solution, 25 mg/kg): 190 mL/min/kg; Vss ([2]; salt solution, 25 mg/kg): 87.7 L/kg; CL ([2]; salt solution, 50 mg/kg): 187 mL/min/kg; Vss ([2]; salt solution, 50 mg/kg): 81.4 L/kg; CL ([2]; salt solution, 100 mg/kg): 40.5 mL/min/kg; Vss ([2]; salt solution, 100 mg/kg): 4.99 L/kg; CL ([2]; salt solution, 200 mg/kg): 8.3 mL/min/kg; Vss ([2]; salt solution, 200 mg/kg): 0.89 L/kg
